{"source": "paper PMC3128679", "about": "(Bioorganic & medicinal chemistry letters, 2011)", "format_in_all_cases": "biochemical", "key": {"SHP1": {"target": "SHP1 (Homo sapiens, UniProt P29350)", "sequence (P29350 whole entry)": "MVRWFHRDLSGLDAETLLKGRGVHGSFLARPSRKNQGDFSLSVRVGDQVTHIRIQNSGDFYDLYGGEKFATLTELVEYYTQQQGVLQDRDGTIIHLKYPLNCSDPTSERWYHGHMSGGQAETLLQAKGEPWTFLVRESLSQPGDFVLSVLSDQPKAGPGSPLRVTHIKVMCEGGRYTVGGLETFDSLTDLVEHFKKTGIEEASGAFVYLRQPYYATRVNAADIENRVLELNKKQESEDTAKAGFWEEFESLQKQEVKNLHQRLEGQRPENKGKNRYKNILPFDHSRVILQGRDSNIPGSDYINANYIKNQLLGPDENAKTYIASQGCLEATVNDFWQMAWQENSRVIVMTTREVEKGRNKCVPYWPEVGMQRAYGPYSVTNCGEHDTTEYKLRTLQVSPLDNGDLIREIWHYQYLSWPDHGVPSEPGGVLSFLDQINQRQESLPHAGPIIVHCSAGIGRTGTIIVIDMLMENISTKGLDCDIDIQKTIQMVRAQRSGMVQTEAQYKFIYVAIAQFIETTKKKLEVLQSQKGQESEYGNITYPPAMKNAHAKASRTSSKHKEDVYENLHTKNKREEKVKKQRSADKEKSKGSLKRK", "assay": "SHP1 inhibition assay"}, "SHP2 [1]": {"target": "T1, SHP2 (Homo sapiens, UniProt Q06124)", "T1 sequence (Q06124 1-593)": "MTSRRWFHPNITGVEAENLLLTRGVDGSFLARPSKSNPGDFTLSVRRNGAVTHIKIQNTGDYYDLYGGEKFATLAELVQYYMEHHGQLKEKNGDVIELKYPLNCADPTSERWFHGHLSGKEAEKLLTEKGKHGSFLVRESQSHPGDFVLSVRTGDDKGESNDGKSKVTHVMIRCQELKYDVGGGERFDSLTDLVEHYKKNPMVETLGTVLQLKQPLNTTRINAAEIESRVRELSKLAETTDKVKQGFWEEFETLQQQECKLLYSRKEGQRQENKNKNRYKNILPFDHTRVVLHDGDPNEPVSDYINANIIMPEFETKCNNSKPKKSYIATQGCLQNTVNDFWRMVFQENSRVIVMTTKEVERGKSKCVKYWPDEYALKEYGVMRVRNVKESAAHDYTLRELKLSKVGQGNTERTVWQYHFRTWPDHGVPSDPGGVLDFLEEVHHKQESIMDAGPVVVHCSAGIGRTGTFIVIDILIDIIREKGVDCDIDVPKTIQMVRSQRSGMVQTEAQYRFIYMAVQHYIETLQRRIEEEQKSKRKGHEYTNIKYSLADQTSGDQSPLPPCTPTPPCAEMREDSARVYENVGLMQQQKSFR", "assay": "in vitro SHP2 inhibition assay", "details": "for SHP2 inhibition at 1 mM: 1 mM compound concentration"}, "PTP1B": {"target": "T2, PTP1B (Homo sapiens, UniProt P18031)", "T2 sequence (P18031 1-435)": "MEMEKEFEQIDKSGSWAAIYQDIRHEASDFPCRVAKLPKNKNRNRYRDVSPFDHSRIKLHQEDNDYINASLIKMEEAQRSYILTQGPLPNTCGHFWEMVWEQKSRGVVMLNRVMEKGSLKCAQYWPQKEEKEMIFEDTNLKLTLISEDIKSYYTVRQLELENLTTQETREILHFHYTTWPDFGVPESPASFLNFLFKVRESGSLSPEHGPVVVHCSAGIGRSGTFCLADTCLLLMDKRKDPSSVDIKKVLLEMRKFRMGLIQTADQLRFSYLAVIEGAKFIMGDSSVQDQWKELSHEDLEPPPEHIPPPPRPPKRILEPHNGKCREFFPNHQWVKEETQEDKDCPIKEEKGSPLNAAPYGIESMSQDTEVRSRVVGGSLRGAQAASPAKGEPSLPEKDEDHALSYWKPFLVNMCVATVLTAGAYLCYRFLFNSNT", "assay": "PTP1B inhibition assay"}, "VHR": {"target": "VHR (Homo sapiens, UniProt P51452)", "sequence (P51452 whole entry, species assumed)": "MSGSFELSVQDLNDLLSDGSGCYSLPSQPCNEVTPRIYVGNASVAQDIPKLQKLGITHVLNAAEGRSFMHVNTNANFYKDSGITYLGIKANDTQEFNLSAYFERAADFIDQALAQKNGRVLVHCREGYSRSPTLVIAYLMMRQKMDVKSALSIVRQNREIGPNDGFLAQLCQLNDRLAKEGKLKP", "assay": "PTP panel inhibition assay, VHR", "details": "at 100 µM"}, "Cdc14": {"test_system": "Cdc14", "assay": "PTP panel inhibition assay, Cdc14", "details": "at 100 µM"}, "SHP2 [2]": {"target": "T1, SHP2", "assay": "steady-state enzyme kinetic analysis of SHP2 inhibition", "details": "C21 at 0, 4, 8 and 12 µM"}, "LYP": {"target": "T3, LYP (Homo sapiens, UniProt Q9Y2R2)", "T3 sequence (Q9Y2R2 1-807)": "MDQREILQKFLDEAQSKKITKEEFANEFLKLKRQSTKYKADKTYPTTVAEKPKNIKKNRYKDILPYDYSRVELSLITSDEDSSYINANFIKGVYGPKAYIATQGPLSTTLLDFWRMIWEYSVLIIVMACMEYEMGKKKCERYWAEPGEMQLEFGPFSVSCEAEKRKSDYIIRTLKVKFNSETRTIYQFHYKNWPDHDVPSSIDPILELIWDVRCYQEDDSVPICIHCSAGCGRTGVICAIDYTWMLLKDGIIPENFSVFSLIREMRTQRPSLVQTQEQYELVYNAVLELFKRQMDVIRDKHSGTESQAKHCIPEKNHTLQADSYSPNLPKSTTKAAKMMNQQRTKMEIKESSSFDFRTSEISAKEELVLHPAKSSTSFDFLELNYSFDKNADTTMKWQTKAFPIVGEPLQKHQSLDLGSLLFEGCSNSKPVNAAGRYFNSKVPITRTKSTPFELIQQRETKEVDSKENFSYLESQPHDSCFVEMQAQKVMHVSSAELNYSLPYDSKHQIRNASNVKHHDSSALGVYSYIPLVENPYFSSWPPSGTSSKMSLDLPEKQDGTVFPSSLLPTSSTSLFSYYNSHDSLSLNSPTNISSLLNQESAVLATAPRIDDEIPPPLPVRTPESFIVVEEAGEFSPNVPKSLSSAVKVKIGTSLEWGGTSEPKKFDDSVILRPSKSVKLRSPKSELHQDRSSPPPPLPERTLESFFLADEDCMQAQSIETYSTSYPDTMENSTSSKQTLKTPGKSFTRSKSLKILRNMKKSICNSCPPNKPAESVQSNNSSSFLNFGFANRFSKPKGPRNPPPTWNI", "assay": "PTP panel inhibition assay, LYP", "details": "at 100 µM"}, "PTPα": {"target": "PTPα (Homo sapiens, UniProt P18433)", "sequence (P18433 20-802)": "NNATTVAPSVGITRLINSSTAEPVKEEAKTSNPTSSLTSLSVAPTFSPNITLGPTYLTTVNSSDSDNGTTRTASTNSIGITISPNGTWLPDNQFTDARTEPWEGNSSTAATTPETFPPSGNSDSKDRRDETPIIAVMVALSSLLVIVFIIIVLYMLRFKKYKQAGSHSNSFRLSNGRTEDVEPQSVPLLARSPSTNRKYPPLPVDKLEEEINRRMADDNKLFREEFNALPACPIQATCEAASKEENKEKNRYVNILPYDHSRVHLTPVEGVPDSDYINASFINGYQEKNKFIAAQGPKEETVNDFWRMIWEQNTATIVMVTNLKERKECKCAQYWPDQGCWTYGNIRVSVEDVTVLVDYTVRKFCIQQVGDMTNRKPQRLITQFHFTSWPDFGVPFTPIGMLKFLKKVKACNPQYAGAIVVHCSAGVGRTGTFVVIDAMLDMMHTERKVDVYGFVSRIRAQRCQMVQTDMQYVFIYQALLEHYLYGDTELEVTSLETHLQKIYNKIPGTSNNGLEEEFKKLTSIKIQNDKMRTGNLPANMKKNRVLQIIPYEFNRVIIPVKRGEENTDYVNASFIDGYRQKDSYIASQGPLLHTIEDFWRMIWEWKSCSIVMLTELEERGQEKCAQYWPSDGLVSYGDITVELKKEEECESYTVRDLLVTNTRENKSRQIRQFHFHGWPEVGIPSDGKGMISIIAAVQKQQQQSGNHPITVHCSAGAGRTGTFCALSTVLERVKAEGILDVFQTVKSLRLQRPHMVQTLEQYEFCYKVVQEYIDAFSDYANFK", "assay": "PTP panel inhibition assay, PTPα", "details": "at 100 µM"}}, "data": [{"compound": "CC(=O)N(c1ccc2oc3c(c2c1)CCCC3)S(=O)(=O)c1ccc(C(=O)O)cc1", "note": "[Compound C18]", "values": [{"measurement": "inhibition against SHP1 compared with SHP2 (in words)", "setting": "SHP1", "result": "better inhibition"}, {"measurement": "concentration dependence of SHP2 inhibition", "setting": "SHP2 [1]", "result": "concentration-dependent inhibition"}, {"measurement": "inhibitory activity against SHP2 (in words)", "setting": "SHP2 [1]", "result": "only moderate inhibitory activity"}, {"measurement": "inhibition against PTP1B compared with SHP2 (in words)", "setting": "PTP1B", "result": "better inhibition"}]}, {"compound": "Cc1cc(S(=O)(=O)O)ccc1N1N=C(C(=O)O)CC1=O", "note": "[Compound C21-A1]", "values": [{"measurement": "fold decreased SHP2 inhibition", "setting": "SHP2 [1]; relative to C21", "result": "~ 5 fold"}]}, {"compound": "O=C(O)C1=NN(c2ccc(S(=O)(=O)O)cc2)C(=O)C1", "note": "[Compound C21-A2]", "values": [{"measurement": "fold decreased affinity for SHP2", "setting": "SHP2 [1]; relative to C21-A1", "result": "~ 4 fold"}]}, {"compound": "O=C(O)C1=NN(c2ccccc2)C(=O)C1", "note": "[Compound C21-A3]", "values": [{"measurement": "IC50", "setting": "SHP2 [1]", "result": "> 1000", "unit": "µM"}, {"measurement": "SHP2 inhibition at 1 mM", "setting": "SHP2 [1]", "result": "failed to inhibit SHP2"}]}, {"compound": "CC1=NN(c2ccc(S(=O)(=O)O)cc2C)C(=O)C1", "note": "[Compound C21-A4]", "values": [{"measurement": "IC50", "setting": "SHP2 [1]", "result": "> 1000", "unit": "µM"}, {"measurement": "SHP2 inhibition at 1 mM", "setting": "SHP2 [1]", "result": "failed to inhibit SHP2"}]}, {"compound": "Cc1cc(S(=O)(=O)O)c(S(=O)(=O)O)cc1N1N=C(C(=O)O)CC1=O", "note": "[Compound C21]", "values": [{"measurement": "inhibition of VHR", "setting": "VHR", "result": "almost no inhibition"}, {"measurement": "inhibition of Cdc14", "setting": "Cdc14", "result": "almost no inhibition"}, {"measurement": "concentration dependence of SHP2 inhibition", "setting": "SHP2 [1]", "result": "concentration-dependent inhibition"}, {"measurement": "mode of inhibition against SHP2", "setting": "SHP2 [2]", "result": "reversible and competitive"}, {"measurement": "inhibition of LYP", "setting": "LYP", "result": "almost no inhibition"}, {"measurement": "inhibition of PTPα", "setting": "PTPα", "result": "almost no inhibition"}]}, {"compound": "CC(=O)c1c(C)oc2ccc(NS(=O)(=O)c3cccc(C(=O)O)c3)cc12", "note": "[Compound C30]", "values": [{"measurement": "inhibition against SHP1 compared with SHP2 (in words)", "setting": "SHP1", "result": "better inhibition"}, {"measurement": "concentration dependence of SHP2 inhibition", "setting": "SHP2 [1]", "result": "concentration-dependent inhibition"}, {"measurement": "inhibitory activity against SHP2 (in words)", "setting": "SHP2 [1]", "result": "only moderate inhibitory activity"}, {"measurement": "inhibition against PTP1B compared with SHP2 (in words)", "setting": "PTP1B", "result": "better inhibition"}]}]}
